Data set [1] relates to H460 cancer cell line. The experiment in a line: Cytotoxicity in cell culture (FIG. 3), H460. The class given is cell-based. The note with it: H460 cells, in vitro.
Data set [2] relates to MCF-7 cancer cell line. Description: Cytotoxicity in cell culture (FIG. 3), MCF-7. It counts as cell-based. The following applies: MCF-7 cells, in vitro.
The subject of data set [3] is NCI-ADR cancer cell line. Description: Cytotoxicity in cell culture (FIG. 3), NCI-ADR. The class given is cell-based. The following applies: NCI-ADR cells, in vitro.
For data set [4], the system named is SF cancer cell line. Description: Cytotoxicity in cell culture (FIG. 3), SF. It counts as cell-based. The note with it: SF cells, in vitro.
Data set [5] has as its system MX-1 tumor xenograft. Description: MX-1 tumor xenograft in nude mice, tumor size (FIG. 1). It counts as in vivo. The following applies: infusion twice daily for five days; compared with control (pharmaceutical carrier only).
Data set [6] in a line: Body weight of treated nude mice with MX-1 xenograft (FIG. 2). The note with it: infusion twice daily for five days; during the course of treatment. It counts as in vivo.

Consider `C/C(=C\c1csc(C)n1)[C@H]1OC(=O)C[C@H](O)C(C)(C)C(=O)[C@H](C)[C@@H](O)[C@@H](C)CCC[C@@]2(C)O[C@H]2[C@H]1C` [(14S)-14-methylepothilone B], for which the cytotoxicity result in data set [1], in data set [2], in data set [3] and in data set [4] was “essentially inactive” throughout.

For `C/C1=C/[C@@H](C)[C@@H](/C(C)=C/c2csc(C)n2)OC(=O)C[C@H](O)C(C)(C)C(=O)[C@H](C)[C@@H](O)[C@@H](C)CCC1` [(14R)-14-methylepothilone D], the cytotoxicity entry in data set [1], in data set [2], in data set [3] and in data set [4] was “essentially inactive” throughout.

For `C/C(=C\c1csc(C)n1)[C@H]1OC(=O)C[C@H](O)C(C)(C)C(=O)[C@H](C)[C@@H](O)[C@@H](C)CCC[C@@]2(C)O[C@H]2[C@@H]1C` [(14R)-14-methylepothilone B], the cytotoxicity entry in data set [1], in data set [2], in data set [3] and in data set [4] was “cytotoxic” each time.

Take `C/C1=C/[C@H](C)[C@@H](/C(C)=C/c2csc(C)n2)OC(=O)C[C@H](O)C(C)(C)C(=O)[C@H](C)[C@@H](O)[C@@H](C)CCC1` [(14S)-14-methylepothilone D]: the “rate of tumor growth as measured by the tumor size” value in data set [5] is “decrease in the rate of tumor growth”. The cytotoxicity result in data set [1], in data set [2], in data set [3] and in data set [4] was “cytotoxic” in each case. The body weight entry in data set [6] is reported as “slight decrease in body weight”.

Values taken from patent US20030134883A1, “14-Methyl-epothilones” (priority 2001, published 2003).
